SMILES strings stand for the structures.

In test [1] the test system is Conscious Cynomolgus Monkeys. Briefly: IOP response in conscious cynomolgus monkeys. To be noted: dose 100 μg, 6 hours after dose. In kind it is in vivo, cynomolgus monkey.
The next test has as its system monkey. To be noted: due to its α1A receptor activity; cited from earlier work.
A further test relates to rabbits. To be noted: cited from earlier work.

Regarding `COc1cc(C[C@@H](C)N)c(OC)cc1I` [(R)-DOI], the “Percent IOP Reduction ± SEM” value in test [1] is given as 34.4 ± 4.98%.

For `COc1ccccc1N1CCN(CCCNc2c(C)c(=O)n(C)c(=O)n2C)CC1` [5-methylurapidil], the “effect on IOP” value in the test on monkey is recorded as “lowers IOP”.

For `CCCN(CCC)C1CCc2cccc(O)c2C1` (stereo not drawn) [Example 8-OH-DPAT, 8-hydroxydipropylaminotetralin], the “effect on IOP” value in the test on rabbits is given as “reduces IOP”.
